Key:
[1] = molecular target: T1, OR2W1 (Homo sapiens, UniProt Q9Y3N9); assay: Olfactory receptor cAMP signaling in transfected HEK293T cells exposed to menthol; assay type: cell-based; conditions: 2W1, menthol 1 nM to 1 mM, cAMP production
T1 construct: expressed in transfected cells; host or cells: HEK293T
T1 sequence (Q9Y3N9 1-320): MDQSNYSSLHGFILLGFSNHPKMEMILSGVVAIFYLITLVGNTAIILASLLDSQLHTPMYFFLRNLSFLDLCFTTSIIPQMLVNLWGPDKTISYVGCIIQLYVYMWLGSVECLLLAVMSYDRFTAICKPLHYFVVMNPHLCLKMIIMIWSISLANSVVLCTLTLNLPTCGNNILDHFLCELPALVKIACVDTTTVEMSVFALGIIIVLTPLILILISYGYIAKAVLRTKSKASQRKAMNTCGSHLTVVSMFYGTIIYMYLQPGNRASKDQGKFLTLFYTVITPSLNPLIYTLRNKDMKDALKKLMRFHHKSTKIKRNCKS
Experimental: (§1) When creating an age-related flavor profile for menthol, identification of the olfactory receptors that respond to menthol may be accomplished by transfecting human olfactory receptor cDNA sequences in HEK293T co-expressing accessory factors for odorant receptor expression (see, e.g., Saito, H., et al., Cell 119:679-691 (2004)). Transfected cells may then be exposed to serial dilutions of menthol from 1 nM to 1 mM in growth medium, and receptor signaling may be measured by cAMP production in the cell using a commercial assay.
(§2) Next, positive olfactory receptors may be identified by increased signaling when exposed to at least one menthol concentration compared to control cells that have not been transfected. In each case, an EC50 is defined for the receptor versus menthol. Olfactory receptors OR1G1, 8K3, 2W1, 2J2, 11H7P and 51E1 have been identified by this method as menthol-sensitive olfactory receptors.

[2] = molecular target: T2, OR2J2 (Homo sapiens, UniProt O76002); assay: as above; assay type: cell-based; conditions: 2J2, menthol 1 nM to 1 mM, cAMP production
T2 construct: expressed in transfected cells; host or cells: HEK293T
T2 sequence (O76002 1-312): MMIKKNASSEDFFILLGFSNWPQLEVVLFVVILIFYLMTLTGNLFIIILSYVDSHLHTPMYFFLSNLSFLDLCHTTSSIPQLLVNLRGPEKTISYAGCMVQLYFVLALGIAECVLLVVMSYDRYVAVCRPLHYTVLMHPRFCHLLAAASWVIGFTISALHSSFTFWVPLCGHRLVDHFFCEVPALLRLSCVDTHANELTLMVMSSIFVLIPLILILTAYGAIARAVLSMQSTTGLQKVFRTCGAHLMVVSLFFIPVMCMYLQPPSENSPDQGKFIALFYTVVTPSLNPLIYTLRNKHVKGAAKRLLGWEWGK
Experimental: as §1, §2

[3] = molecular target: T3, OR1G1 (Homo sapiens, UniProt P47890); assay: as above; assay type: cell-based; conditions: menthol 1 nM to 1 mM, cAMP production
T3 construct: expressed in transfected cells; host or cells: HEK293T
T3 sequence (P47890 1-313): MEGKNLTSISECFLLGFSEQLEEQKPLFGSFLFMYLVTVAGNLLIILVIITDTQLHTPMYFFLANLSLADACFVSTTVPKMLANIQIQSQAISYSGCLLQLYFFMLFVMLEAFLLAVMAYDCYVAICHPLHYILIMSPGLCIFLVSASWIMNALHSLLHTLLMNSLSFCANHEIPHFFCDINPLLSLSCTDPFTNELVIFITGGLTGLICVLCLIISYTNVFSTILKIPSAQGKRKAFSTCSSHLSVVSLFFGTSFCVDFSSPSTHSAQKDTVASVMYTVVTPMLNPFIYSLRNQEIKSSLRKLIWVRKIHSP
Experimental: as §1, §2

[4] = molecular target: T4, OR51E1 (Homo sapiens, UniProt Q8TCB6); assay: as above; assay type: cell-based; conditions: 51E1, menthol 1 nM to 1 mM, cAMP production
T4 construct: expressed in transfected cells; host or cells: HEK293T
T4 sequence (Q8TCB6 1-318): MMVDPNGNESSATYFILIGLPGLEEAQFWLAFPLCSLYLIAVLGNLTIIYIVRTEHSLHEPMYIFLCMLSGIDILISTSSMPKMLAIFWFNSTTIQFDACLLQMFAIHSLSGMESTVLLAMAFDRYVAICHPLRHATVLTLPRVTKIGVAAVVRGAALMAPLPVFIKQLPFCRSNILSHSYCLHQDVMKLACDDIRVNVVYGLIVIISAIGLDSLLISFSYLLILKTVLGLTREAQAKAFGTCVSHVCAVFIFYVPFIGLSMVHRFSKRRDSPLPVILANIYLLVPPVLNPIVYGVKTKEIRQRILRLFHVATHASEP
Experimental: as §1, §2

[5] = molecular target: T5, OR11H7P (Homo sapiens, UniProt Q8NGC8); assay: as above; assay type: cell-based; conditions: 11H7P, menthol 1 nM to 1 mM, cAMP production
T5 construct: expressed in transfected cells; host or cells: HEK293T
T5 sequence (Q8NGC8 1-314): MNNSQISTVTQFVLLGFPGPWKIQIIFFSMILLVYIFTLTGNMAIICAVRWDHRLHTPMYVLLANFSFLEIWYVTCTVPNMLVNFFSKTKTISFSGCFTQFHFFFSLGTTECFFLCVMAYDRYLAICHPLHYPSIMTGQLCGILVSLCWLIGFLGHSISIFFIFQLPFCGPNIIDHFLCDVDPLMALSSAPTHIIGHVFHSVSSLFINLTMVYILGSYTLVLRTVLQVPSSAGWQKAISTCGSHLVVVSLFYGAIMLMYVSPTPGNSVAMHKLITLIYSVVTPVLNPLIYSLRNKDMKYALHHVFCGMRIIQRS
Experimental: as §1, §2

[6] = molecular target: T6, OR8K3 (Homo sapiens, UniProt Q8NH51); assay: as above; assay type: cell-based; conditions: 8K3, menthol 1 nM to 1 mM, cAMP production
T6 construct: expressed in transfected cells; host or cells: HEK293T
T6 sequence (Q8NH51 1-312): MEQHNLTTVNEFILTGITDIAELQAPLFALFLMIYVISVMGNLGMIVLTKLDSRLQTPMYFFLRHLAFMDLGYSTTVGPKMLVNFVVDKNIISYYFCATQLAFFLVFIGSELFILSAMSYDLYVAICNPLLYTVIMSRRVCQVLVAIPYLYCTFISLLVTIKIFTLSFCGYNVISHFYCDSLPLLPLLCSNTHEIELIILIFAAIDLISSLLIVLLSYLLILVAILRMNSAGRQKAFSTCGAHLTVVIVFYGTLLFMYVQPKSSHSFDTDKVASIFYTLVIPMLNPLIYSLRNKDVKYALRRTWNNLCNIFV
Experimental: as §1, §2

[7] = adults relative to children; cited from earlier work

Compound: CC1CCC(C(C)C)C(O)C1 (stereo not shown) [menthol]
- receptor identified as menthol-sensitive (increased signaling vs non-transfected control cells) [1]: menthol-sensitive
- receptor identified as menthol-sensitive (increased signaling vs non-transfected control cells) [2]: menthol-sensitive
- receptor identified as menthol-sensitive (increased signaling vs non-transfected control cells) [3]: menthol-sensitive
- receptor identified as menthol-sensitive (increased signaling vs non-transfected control cells) [4]: menthol-sensitive
- receptor identified as menthol-sensitive (increased signaling vs non-transfected control cells) [5]: menthol-sensitive
- receptor identified as menthol-sensitive (increased signaling vs non-transfected control cells) [6]: menthol-sensitive
- menthol concentration adults require to perceive the same level of intensity as children [7]: approximately two

From patent publication US20220110886A1, “OPTIMIZATION OF SCENT OR FLAVOR COMPOSITIONS” (Aromyx Corporation, priority 2019, published 2022)
